# Measurements: patent publication US12343326B2, “Psychoactive medicines and their use for treating psychiatric and neurological conditions and disorders” (Transcend Therapeutics, Inc., priority 2021, dated 2025)
# How the values were obtained:
# [1] = target: T1, 5HT2A receptor (Homo sapiens, UniProt P28223); test: GPCRmax screen, agonist mode; assay type: cell-based
# T1 construct: beta-galactosidase enzyme fragment (PathHunter complementation tag); host or cells: PathHunter cell lines
# [2] = tested on: 168 GPCRs; test: β-arrestin based GPCR screen (PathHunter / GPCRmax), agonist mode; assay type: cell-based
# Procedure: For agonist determination, cells were incubated with sample to induce response. […] Vehicle concentration was 1%.
# [3] = Excipient compatibility study (appearance, assay, related substances); assay type: physicochemical; details: closed vial
# Procedure: Analyses were conducted at t=0, 2, 4 and 8 weeks for appearance, assay, and related substances for samples stored in closed vials at 25° C./60% RH and 40° C./75% RH.
# Excipient Compatibility Sample Mixtures: The excipients and API were dispensed individually by weight into 20 mL clear borosilicate (type I) glass vials to fill the appropriate weights as listed in Table 12. Table 12 lists mixtures of API with varied excipients and a stand-alone control sample of API alone. Each excipient mixture sample preparation was conducted using a clean spatula to mix the vial ingredients for 30-60 seconds. Each vial was properly labeled with the description and storage conditions. One vial was used for testing at the initial (t=0) time point. Three vials, closed, were placed at each storage condition to allow sampling at each time point and one vial, closed, was placed at each storage condition for overage.
# T1 sequence (P28223 whole entry, the tested form may be a part): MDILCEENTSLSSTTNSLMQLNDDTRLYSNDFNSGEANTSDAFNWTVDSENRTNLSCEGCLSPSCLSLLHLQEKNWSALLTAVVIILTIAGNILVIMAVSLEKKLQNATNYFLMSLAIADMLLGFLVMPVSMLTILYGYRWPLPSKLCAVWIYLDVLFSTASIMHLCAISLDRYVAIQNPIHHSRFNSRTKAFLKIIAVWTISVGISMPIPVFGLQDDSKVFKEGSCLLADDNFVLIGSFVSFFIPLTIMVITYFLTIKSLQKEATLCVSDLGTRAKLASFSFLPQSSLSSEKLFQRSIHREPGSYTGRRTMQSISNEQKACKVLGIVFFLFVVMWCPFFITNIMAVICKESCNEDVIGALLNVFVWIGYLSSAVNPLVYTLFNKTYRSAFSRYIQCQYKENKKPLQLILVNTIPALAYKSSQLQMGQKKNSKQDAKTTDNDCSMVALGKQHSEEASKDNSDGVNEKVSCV
smiles,measurement,setting,value
"CNC(C)C(=O)c1ccc2c(c1)OCO2 (stereo not shown) [methylone, 3,4-methylenedioxy-N-methylcathinone]",agonist % activity,"[1]; 1 or 10 mM, threshold 30%",no agonist or antagonist activity
same,activity at 10 µM,"[1]; HTR2A, Agonist mode, 10 uM",1.4%
same,activity at 1 µM,"[1]; HTR2A, Agonist, 1 uM",-0.1%
same,agonist activity at any of the 168 GPCRs (criterion >30% activity),[2]; 1 and 10 micromolar,did not meet criteria for agonist or antagonist activity
same,% Activity,"[2]; DRD2S, Agonist mode, 10 uM",0.6%
same,% Activity,"[2]; DRD2S, Agonist, 1 uM",0%
same,% Activity,"[2]; NPSR1b, Agonist mode, 10 uM",4.8%
same,% Activity,"[2]; NPSR1b, Agonist, 1 uM",−1.3%
same,Assay (% Recovery),[3]; 4 Week 25° C./60% RH,100.3%
same,Assay (% Recovery),[3]; 8 Week 40° C./75% RH,100.3%
